Assay results published in patent publication US11732003B2, “Mechanical method of maintaining narrow residence time distributions in continuous flow systems” (priority 2017, dated 2023).
Like-named read-outs stand apart in the source and are kept apart here.

Experiments:
[1] = test system: Phi6; settings: static, pH 3.6 (8.7 M acetic acid), mAb 5 mg/mL, 22-25° C.
Method: In this representative experiment, the purpose was to evaluate the inactivation kinetics of an enveloped bacteriophage virus (Phi6) at low pH conditions. The objective was to determine the exposure time required for complete inactivation.
A monoclonal antibody (mAb) was purified by standard Protein A chromatography and prepared at a concentration of 5 mg/mL. […] Human serum albumin (HSA) (0.25% v/v) was added for Phi6 stability. Following confirmation of pH, the virus spike was added to the sample reservoir containing the mAb and vortexed to ensure a well-mixed system. The Phi6 target spike level was 1×10^7 pfu (plaque forming units)/mL. Within 0.3 minutes of the virus addition, a 1 mL sample was removed and transferred to a tube containing a previously determined volume of 2 M Tris Base, pH 10 to neutralize (pH 6-8) the sample and quench the inactivation step. The tube was vortexed after the base addition. This process of removing and neutralizing a sample was repeated for each time point. These experiments were carried out at room temperature, 22-25° C. Control samples at the initial and final time points were also analyzed. For the control samples, the pH was maintained at the feed pH level (pH 6.3) but the samples were diluted similarly to the actual samples using the background buffer at pH 6.3.

[2] = test system: xenotropic murine leukemia virus (XMuLV); settings: static, mAb 18 g/L; for Time to Complete Inactivation: XMuLV
Method: The purpose of this study was to evaluate the virus inactivation kinetics of xenotropic murine leukemia virus (XMuLV, an enveloped virus commonly used for clearance studies of monoclonal antibody products, under low pH conditions. The objective was to determine the exposure time required for complete inactivation.
Following confirmation of pH, the virus spike was added to the sample reservoir containing the mAb and vortexed to ensure a well-mixed system. The XMuLV target spike level was 1×10^7 TCID50/mL (TCID50=Tissue Culture Infection Dose) (4% spike v/v). Within 0.3 minutes of the virus addition, a 1 mL sample was removed and transferred to a tube containing a previously determined volume of 2 M Tris Base to neutralize (pH 6-8) the sample and quench the inactivation step. The tube was vortexed after the base addition. This process of removing and neutralizing a sample was repeated for each time point. These experiments were carried out at room temperature, 22-25° C. Control samples at the initial and final time points were also analyzed. For the control samples, the pH was maintained at the feed pH level but the samples were diluted similarly to the actual samples using the background buffer.
The neutralized samples were assayed for infectivity using the cell-based TCID50 infectivity assay using PG4 indicator cells (Bolton G, Cabatingan M, Rubino M, et al. Normal-flow virus filtration:detection and assessment of the endpoint in bio-processing. Biotechnol Appl Biochem 2005; 42: 133-42). To mitigate cytotoxicity and quench the virus inactivation, samples were diluted 1:50 with ten-fold serial dilutions in cell culture media and then 100 μl aliquots of each dilution were added to a 96-well plate. Following incubation at 37° C. in 5% CO2 for 7 days, infected wells were visually assessed for cytopathic effect (CPE). Titers and LRVs were calculated using standard methods (ICH. Guidance on Viral Safety Evaluation of Biotechnology Products Derived From Cell Lines of Human or Animal Origin. In: Use ICoHoTRfRoPfH, ed. Geneva, Switzerland: ICH, 1998). To determine the LRV at each time point, the titer of the time point was subtracted from the titer of the closest control time point.

[3] = test system: Phi6; settings: in-line continuous flow, 1 M acetic acid added at 0.75 mL/min to 1 mL/min feed
Method: This representative example describes the use of a continuous flow system to carry out low pH virus inactivation.
A system consisting of a main feed pump, an acid addition pump, and a base addition pump was used to inactivate virus under continuous flow conditions. A mAb solution was spiked with Phi6 and was connected to the main feed pump inlet. The Phi6 target spike level was 1×10^8 pfu/mL. […] The feed flow rate was set to 1 mL/min. Acid was added into the main stream at a flow rate of 0.75 mL/min. The fluid then passed through a static mixer and a length of tubing designed to contain a particular volume (targeting a desired residence time). Different lengths of tubing were used to contain the required volume for each target average residence time (1, 2, 3, 4, 5, 15 min) after accounting for the dead volume from the valves and pH probe between the acid addition point and the beginning of the incubation chamber. […] At the outlet of the incubation chamber, the material was neutralized by the addition of base into the main line at a flow rate of 0.4 mL/min. The fluid passed through another static mixer and then the neutralized samples were collected at the outlet and assayed for infectivity using the plaque assay. These experiments were carried out at room temperature, 22-25° C. Control samples were also assayed. For the control samples, the pH was maintained at the feed pH level but the samples were diluted similarly to the actual samples using the background buffer.

CC(=O)O [acetic acid]
Phi6 Log Reduction Values (LRV) ([1]; inactivation time 1 min): ≥6.8
Phi6 Log Reduction Values (LRV) ([1]; inactivation time 2 min): ≥6.8
Phi6 Log Reduction Values (LRV) ([1]; inactivation time 3 min): ≥6.8
Phi6 Log Reduction Values (LRV) ([1]; inactivation time 4 min): ≥6.8
Phi6 Log Reduction Values (LRV) ([1]; inactivation time 5 min): ≥6.8
Phi6 Log Reduction Values (LRV) ([1]; inactivation time 15 min): ≥6.8
Time to Complete Inactivation ([2]; pH 4.0 (8.7 M acetic acid)): ≤15 min
Time to Complete Inactivation ([2]; pH 4.2 (8.7 M acetic acid)): ≤30 min
XMuLV LRV ([2]; pH 3.5 (8.7 M acetic acid), inactivation time 0.3 min): 4.0
XMuLV LRV ([2]; pH 3.5 (8.7 M acetic acid), inactivation time 1 min): ≥5.4
XMuLV LRV ([2]; pH 3.5 (8.7 M acetic acid), inactivation time 2 min): ≥5.4
XMuLV LRV ([2]; pH 3.5 (8.7 M acetic acid), inactivation time 3 min): ≥5.4
XMuLV LRV ([2]; pH 3.5 (8.7 M acetic acid), inactivation time 4 min): ≥5.4
XMuLV LRV ([2]; pH 3.5 (8.7 M acetic acid), inactivation time 5 min): ≥5.5
XMuLV LRV ([2]; pH 3.5 (8.7 M acetic acid), inactivation time 15 min): ≥5.5
XMuLV LRV ([2]; pH 3.5 (8.7 M acetic acid), inactivation time 30 min): ≥5.5
XMuLV LRV ([2]; pH 3.5 (8.7 M acetic acid), inactivation time 60 min): ≥5.5
XMuLV LRV ([2]; pH 3.7 (8.7 M acetic acid), inactivation time 0.3 min): 3.6
XMuLV LRV ([2]; pH 3.7 (8.7 M acetic acid), inactivation time 1 min): ≥5.5
XMuLV LRV ([2]; pH 3.7 (8.7 M acetic acid), inactivation time 2 min): ≥5.5
XMuLV LRV ([2]; pH 3.7 (8.7 M acetic acid), inactivation time 3 min): ≥5.5
XMuLV LRV ([2]; pH 3.7 (8.7 M acetic acid), inactivation time 4 min): ≥5.5
XMuLV LRV ([2]; pH 3.7 (8.7 M acetic acid), inactivation time 5 min): ≥5.7
XMuLV LRV ([2]; pH 3.7 (8.7 M acetic acid), inactivation time 15 min): ≥5.7
XMuLV LRV ([2]; pH 3.7 (8.7 M acetic acid), inactivation time 30 min): ≥5.7
XMuLV LRV ([2]; pH 3.7 (8.7 M acetic acid), inactivation time 60 min): ≥5.7
XMuLV LRV ([2]; pH 4.0 (8.7 M acetic acid), inactivation time 0.3 min): 1.6
XMuLV LRV ([2]; pH 4.0 (8.7 M acetic acid), inactivation time 1 min): 4.7
XMuLV LRV ([2]; pH 4.0 (8.7 M acetic acid), inactivation time 2 min): 5.2
XMuLV LRV ([2]; pH 4.0 (8.7 M acetic acid), inactivation time 3 min): 5.3
XMuLV LRV ([2]; pH 4.0 (8.7 M acetic acid), inactivation time 4 min): 5.2
XMuLV LRV ([2]; pH 4.0 (8.7 M acetic acid), inactivation time 5 min): 5.6
XMuLV LRV ([2]; pH 4.0 (8.7 M acetic acid), inactivation time 15 min): ≥5.4
XMuLV LRV ([2]; pH 4.0 (8.7 M acetic acid), inactivation time 30 min): ≥5.4
XMuLV LRV ([2]; pH 4.0 (8.7 M acetic acid), inactivation time 60 min): ≥5.4
XMuLV LRV ([2]; pH 4.2 (8.7 M acetic acid), inactivation time 0.3 min): 1.5
XMuLV LRV ([2]; pH 4.2 (8.7 M acetic acid), inactivation time 1 min): 3.3
XMuLV LRV ([2]; pH 4.2 (8.7 M acetic acid), inactivation time 2 min): 3.5
XMuLV LRV ([2]; pH 4.2 (8.7 M acetic acid), inactivation time 3 min): 3.9
XMuLV LRV ([2]; pH 4.2 (8.7 M acetic acid), inactivation time 4 min): 4.0
XMuLV LRV ([2]; pH 4.2 (8.7 M acetic acid), inactivation time 5 min): 4.2
XMuLV LRV ([2]; pH 4.2 (8.7 M acetic acid), inactivation time 15 min): 4.6
XMuLV LRV ([2]; pH 4.2 (8.7 M acetic acid), inactivation time 30 min): ≥5.7
XMuLV LRV ([2]; pH 4.2 (8.7 M acetic acid), inactivation time 60 min): ≥5.7
Phi6 LRV ([3]; average residence time 1 min): ≥6.8
Phi6 LRV ([3]; average residence time 2 min): ≥6.8
Phi6 LRV ([3]; average residence time 3 min): ≥6.8
Phi6 LRV ([3]; average residence time 4 min): ≥6.8
Phi6 LRV ([3]; average residence time 5 min): ≥6.8
Phi6 LRV ([3]; average residence time 15 min): ≥6.8
